According to US20220257619A1, “LONG-ACTING FORMULATIONS OF TENOFOVIR ALAFENAMIDE” (Gilead Sciences, Inc., priority 2019, published 2022):
In brackets after ≈: the same amount, converted by molar mass. Read-outs that look alike come from different tables or passages of the source. Marks after values point to notes of the source that are not given here.

Key:
physchem = conditions: 37 °C, organic solvent or mixture, thermodynamic from solid
[1] = solvent BB, 37° C., asterisk: taken at 4 days, as opposed to 5 days

| Compound | solubility at 1 day (physchem; ACN) [mg/mL] | solubility at 5 days (physchem; ACN) [mg/mL] | solubility at 1 day (physchem; DCM) [mg/mL] | solubility at 5 days (physchem; DCM) [mg/mL] | solubility at 1 day (physchem; DMSO) [mg/mL] | solubility at 5 days (physchem; DMSO) [mg/mL] | solubility at 1 day (physchem; NMP) [mg/mL] | solubility at 5 days (physchem; NMP) [mg/mL] | solubility at 1 day (physchem; PC) [mg/mL] | solubility at 5 days (physchem; PC) [mg/mL] | Solubility (mg/mL, Calculated as Free Base Equivalent) [1] | Solubility (mg/mL, Calculated as Free Base Equivalent) (solvent ACN, 37° C./5 days) [mg/mL] | Solubility (mg/mL, Calculated as Free Base Equivalent) (solvent DCM, 37° C./5 days) [mg/mL] | Solubility (mg/mL, Calculated as Free Base Equivalent) (solvent DMSO, 37° C./5 days) [mg/mL] | Solubility (mg/mL, Calculated as Free Base Equivalent) (solvent NMP, 37° C./5 days) [mg/mL] | Solubility (mg/mL, Calculated as Free Base Equivalent) (solvent PC, 37° C./5 days) [mg/mL] |
| --- | --- | --- | --- | --- | --- | --- | --- | --- | --- | --- | --- | --- | --- | --- | --- | --- |
| CC(C)OC(=O)[C@H](C)N[P@](=O)(CO[C@H](C)Cn1cnc2c(N)ncnc21)Oc1ccccc1 [TAF Free base, (S)-isopropyl-2-(((S)-((((R)-1-(6-amino-9H-purin-9-yl)propan-2-yl)oxy)methyl)(phenoxy)phosphoryl)amino)propanoate] | 15 (≈ 31.5 mM) | 13 (≈ 27.3 mM) | 146 (≈ 306 mM) | 384 (≈ 806 mM) | 96 (≈ 201 mM) | 182 (≈ 382 mM) | 96 (≈ 201 mM) | 161 (≈ 338 mM) | 15 (≈ 31.5 mM) | 26 (≈ 54.6 mM) | 5.0 mg/mL | – | – | – | – | – |
| tenofovir alafenamide hemifumarate [TAF Hemifumarate] | – | – | – | – | – | – | – | – | – | – | 3.9* mg/mL | 11 | 97 | 132 | 160 | 22 |
